Data on 88 compounds can be found in a melting point compilation (Tetko et al.; mined from patent text by program, amines drawn as free bases though some values may be those of a salt).

Structures are written as SMILES.

With `CCC(OC(C)=O)c1ccc(Cl)c2nc3n(c12)CCCN3c1ccc(N(C)C)nc1C` (stereo not drawn), the melting point – broadly, the temperature, or range, at which the solid turns liquid – is 165 to 166 °C.

Take `CC(=O)Oc1ccc(C(=O)O)cc1-c1ccccc1`: the melting point was in the range of 185 to 187 °C.

`CCOC(=O)C(CNC(C)=O)c1cn(C(=O)OCC)c2ccc(OC)cc12` (stereo not drawn) returned a melting point of 88 to 90 °C.

As for `CC(C)(C)OC(=O)N1CCN(c2ncnc3c2cnn3Cc2cccc(Br)n2)CC1`, the melting point is 126 to 128 °C.

In turn, `c1ccc(N2c3ccccc3[C@@H]3CN(CC4CCC4)CC[C@H]32)cc1` displayed a melting point of 76.5 to 77 °C.

In turn, `Cc1cccc(C)c1N1CC(C)N(c2c(C)cccc2C)C1=NC(=O)OCc1ccccc1` (stereo not drawn) gave a melting point of 74 to 75 °C.

Compound `CC(C)(C)OC(=O)CN1C(=O)[C@@H](NC(=O)OC(C)(C)C)CCc2ccccc21` displayed a melting point of 145 to 147 °C.

Compound `O=CNNc1cccc(NC(=S)Nc2ccccc2)c1` came in with a melting point of 143 to 145 °C.

For `C=C(CN(C)C)C(O)c1ncc2c(c1O)COC2c1ccc(F)cc1` (stereo not drawn), the melting point stood at 198 °C.

In the case of `CNC(=O)C1CCC(c2csc(NC(=N)N)n2)C1` (stereo not drawn), the melting point fell in the range of 216 to 218 °C.

Regarding `CCCCN(CC)c1nc(C)nc2c1c(C)cn2-c1c(C)cc(CF)cc1C`, the melting point lay within 163 to 165 °C.

For the compound `Cc1ccc(-c2c(Cl)ccc3c2C=C(C(=O)O)C(C(F)(F)F)O3)cc1` (stereo not drawn), the melting point fell in the range of 218 to 220 °C.

Regarding `Nc1coc2ccc(Cl)cc2c1=O`, the melting point was in the range of 184 to 186 °C.

Compound `O=[N+]([O-])c1cc(C(F)(F)F)cc(C(F)(F)F)c1S(=O)(=O)Oc1ccccc1` gave a melting point of 83 to 84 °C.

Turning to `CC(=O)CCNC(=O)n1cc(F)c(=O)[nH]c1=O`, the melting point fell in the range of 158 to 159 °C.

With `COc1ccccc1-c1cc(=O)cc(N2CCOCC2)o1`, the melting point was 125 to 127 °C.

In the case of `Oc1ccc(Oc2ncc(Br)cn2)cc1`, the melting point was 178 °C.

`CC(=O)Nc1ccc(-c2coc3cc(OC(C)=O)c(O)cc3c2=O)cc1` came in with a melting point of 265 to 266 °C.

In turn, `CCOC(=O)c1cn(C)c2sc(CCl)cc2c1=O` gave a melting point of 111 to 112 °C.

Take `COc1cccc(/C=C/C2=CCN(Cc3c[nH]c4ncccc34)CC2)c1`: the melting point lay within 186 to 188 °C.

On to `COc1ccc2c(c1)C(=O)C(Br)=C(Br)C2=O`, for which the melting point is 146 to 148 °C.

Compound `Cc1cc(C)c(CCCc2c(C)nc(N)nc2N)cc1C` had a melting point of 188 to 190 °C.

In turn, `CC(C)(Nc1cc(Cl)ccc1[N+](=O)[O-])C(=O)O` displayed a melting point of 146 to 147 °C.

With `CCCCCCCCCCCCSC1c2cccc(O)c2C(=O)c2c(O)cccc21`, the melting point was 76 °C.

For the compound `CN1C(=O)CCC2(C)c3ccc(NC(=O)c4ccccc4)cc3CCC12` (single isomer, unassigned; (+)), the melting point was in the range of 220 to 222 °C.

`CN1CCN(c2cccc3c2C[C@H](NC(=O)c2cccc(Oc4ccccc4)c2)CC3)CC1`: the melting point fell in the range of 136 to 137 °C.

As to `O=C1CCC(N2Cc3cc(CNC(=O)c4ccc(Cl)c(Cl)c4)ccc3C2=O)C(=O)N1` (stereo not drawn), the melting point was 260 to 262 °C.

`CCOc1cc(NC(C)=O)c(Cl)cc1C(=O)NCC1CN(Cc2ccc(F)cc2)CCO1` (stereo not drawn): the melting point lay in the range of 161 to 163 °C.

For the compound `Cc1ccc(C=C(C#N)S(=O)(=O)c2ccccc2)cc1`, the melting point fell in the range of 145 to 147 °C.

As to `CCc1nc(-c2ccc(OCCCN3CCOCC3)cc2)no1`, the melting point lay within 52 to 53 °C.

With `CS(=O)(=O)Nc1cccc(Nc2nc(NCc3cccc(O)c3)c3nc[nH]c3n2)c1`, the melting point lay in the range of 221 to 225 °C.

In turn, `CC(C)(C)OC(=O)NCC1CCc2cc(O)ccc2C1` (stereo not drawn) returned a melting point of 114 °C.

`CCOC(CNC(=S)Nc1ccn(C)n1)OCC`: the melting point was in the range of 152 to 155 °C.

Take `Cc1ncccc1Oc1ccc(NC(=O)Nc2ccc3[nH]c4c(c3c2)CCN(C(=O)OC(C)(C)C)CC4)cn1`: the melting point was in the range of 173 to 175 °C.

As to `C=CCn1ccc(=O)[nH]c1=O`, the melting point was 108 to 109 °C.

As to `C#CCN1C(=O)CN(C)c2ccc(-c3ncc(C(F)(F)F)cc3Cl)cc21`, the melting point is 128 to 129 °C.

Take `Cc1cnc2c([N+](=O)[O-])cccc2c1Cl`: the melting point is 126 °C.

With `Cc1cc(C(=O)O)ccc1N1CCN(C(=O)OC(C)(C)C)CC1`, the melting point lay within 175 to 179 °C.

`CCOC(=O)c1cccc2c(-c3ccc(C)cc3)nccc12`: the melting point amounted to 112 °C.

As to `CC1(C)Cc2c(c(N3CCOCC3)nc3sc4c(N(CCN5CCOCC5)Cc5cccnc5)ncnc4c23)CO1`, the melting point is 150 °C.

Regarding `COC1=CCc2cccc(NC(C)=O)c2C1`, the melting point is 191 to 192 °C.

In turn, `CC1CCN(CCCC(=O)c2ccc3sc4ccc(C(=O)CCCN5CCC(C)CC5)cc4c3c2)CC1` gave a melting point of 136 to 138 °C.

`CCOC(=O)C(NC(=O)c1ncn(Cc2ccccc2)c1[N+](=O)[O-])(OC)C(=O)OCC`: the melting point was in the range of 126 to 127 °C.

`COCCN(C)c1nccc(Oc2ccc(NC(=O)c3cc(F)cc(N4CCOCC4)c3)c3ccccc23)n1` yielded a melting point of 96 to 98 °C.

Compound `CC1(C)C(=O)CC(=O)C(C)(C)C1=O` yielded a melting point of 92.5 to 93 °C.

With `CCOC(=O)COc1ccc2c(=O)c3ccccc3oc2c1Cl`, the melting point lay within 183 to 185 °C.

Take `CN(C)c1ccc(C=CC(C=C(c2ccc(N(C)C)cc2)c2ccc(N(C)C)cc2)C=C(c2ccc(N(C)C)cc2)c2ccc(N(C)C)cc2)cc1`: the melting point is 78 to 82 °C.

`COc1cc(-c2cnc3[nH]cc(C(=O)C(C)(CO)CO)c3n2)cc(OC)c1OC` had a melting point of 222 to 223 °C.

In turn, `O=C(O)CCSC1c2ccc(-c3nnn[nH]3)cc2COc2ccc(OCc3ccc4ccccc4n3)cc21` (stereo not drawn) had a melting point of 151 to 153 °C.

`CCCCCCCCSC(=O)n1cc2cc(C)c(NC(=O)c3cc(OC)nn3-c3ncccc3Cl)c(C(=O)NC(C)C)c2n1` yielded a melting point of 98 to 102 °C.

The compound `Cc1nc(N2CCN(CCC3CC3)C2=O)sc1-c1cc[nH]n1` had a melting point of 147 to 149 °C.

`CCOC(=O)c1ncc2[nH]c3ccc(Br)cc3c2c1COC` yielded a melting point of 207 to 209 °C.

Compound `CCC(C)(C)NC(=S)Nc1cc(F)cc(Cl)c1` had a melting point of 116 to 118 °C.

`CC(C)(C)C(=O)c1c[nH]nc1N`: the melting point was 159 to 160 °C.

As to `CCSC[C@@H]1[C@@H](c2ccc(Cl)c(Cl)c2)C[C@@H]2CC[C@H]1N2C`, the melting point was in the range of 69 to 71 °C.

For `Cc1cccc(C(C)(C)C)c1-n1sc(=O)n(Cc2ccccc2)c1=O`, the melting point worked out at 89.8 °C.

On to `COC12CC(CCOC(=O)c3[nH]c(C)cc3C)CN(C)C1Cc1cn(C)c3cccc2c13` (stereo not drawn), for which the melting point is 152 to 153 °C.

In the case of `CN1C(=O)C(c2ccc(OC(F)F)cc2)(c2ccc(F)c(OCCC=C(F)F)c2)N=C1N` (stereo not drawn), the melting point fell in the range of 139 to 140 °C.

The compound `Cc1nnc2n1-c1ccccc1C(c1ccc(Cl)cc1)=NC2NC(=O)Nc1ccccn1` (stereo not drawn) gave a melting point of 274 to 278 °C.

`CN(C)C(=S)Oc1ccc2ncc([N+](=O)[O-])c(-c3ccccc3)c2c1` registered a melting point of 205 to 208 °C.

With `O=S(=O)(CC1CCCCC1)c1nc[nH]n1`, the melting point was in the range of 172 to 175 °C.

As to `CCCNC(=O)[C@H]1CN(c2ccc(N3CCOCC3)c(F)c2)C(=O)O1`, the melting point was in the range of 165 to 167 °C.

Compound `CN1CCN(S(=O)(=O)c2cccc(NC(=O)c3cnn4c(C(F)F)cc(-c5ccc(Cl)c(Cl)c5)nc34)c2)CC1` came in with a melting point of 229 °C.

Regarding `CC(C)(C)OC1C2C=CC1C1N=NC21` (stereo not drawn), the melting point is 78 °C.

As for `Cc1ccc2c(c1)C(=O)c1ccc(C(=O)O)cc1S2(=O)=O`, the melting point was determined as 357 °C.

Take `CN1CC[C@@H]2CC(=O)c3cccc(F)c3[C@@H]2C1` (relative stereo): the melting point was greater than 220 °C.

Compound `Cc1cccc(C(N)=O)c1NS(=O)(=O)c1nc2scc(C)n2n1` displayed a melting point of 217 to 218 °C.

In turn, `Fc1ccc(-n2nccc2-c2ccnc(NCc3ccccc3)c2)cc1` registered a melting point of 125 to 127 °C.

As to `CN(C(=O)[C@H]1C[C@H](C(=O)O)[C@@H](c2ccccc2F)N1C(=O)CNC(=O)Nc1cccc(CC(=O)O)c1)c1ccccc1` (racemic), the melting point amounted to 164 °C.

The compound `CC(C)(C)OC(=O)c1sc(Oc2ccc3c(c2)OCO3)c2c1CCc1cnoc1-2` registered a melting point of 165 to 166 °C.

In the case of `Cc1oc(-c2ccccc2)nc1CCOc1ccc(CCCC=C2OC(=O)NC2=O)cc1`, the melting point lay in the range of 152 to 153 °C.

The compound `CC(=O)Nc1ccc2sc3ccc(Br)cc3c(=O)c2c1` returned a melting point of 219 to 222 °C.

The compound `Cc1ccc(Cl)cc1NC(=S)NCC(N)=O` came in with a melting point of 162 to 164 °C.

The compound `COC(=O)c1nnc2n1-c1ccc(Cl)cc1C(c1ccccc1)=NC2` yielded a melting point of 216 to 217 °C.

The compound `CC1(C)SC(=O)NC1C(=O)NCCO[N+](=O)[O-]` (stereo not drawn) gave a melting point of 98 to 100 °C.

On to `Cc1c(Sc2ccc(Cl)cc2)c2c(N3CCN(C(=O)OC(C)(C)C)CC3)cccc2n1CC(=O)O`, for which the melting point was 173 °C.

Take `O=C1Nc2cc(F)c(F)cc2N2CCNCC12` (stereo not drawn): the melting point lay in the range of 226 to 228 °C.

In turn, `COc1ccccc1N1CCN(CCOc2ccc(-c3cn4cccnc4n3)cc2)CC1` yielded a melting point of 150 to 152 °C.

Turning to `COCCOc1ccc(OCC(O)CNCCOc2ccc(OC)cc2)c(C#N)c1` (stereo not drawn), the melting point fell in the range of 95 to 97 °C.

Take `CCCCCCCCCC(=O)Nc1cc(C(=O)N2CCCCC2CO)c2cc[nH]c2c1` (stereo not drawn): the melting point lay in the range of 126 to 129 °C.

`NC(=O)C1CCCc2c(C(=O)c3ccccc3)cccc21` (stereo not drawn) came in with a melting point of 146 to 148 °C.

In the case of `CCOC(=O)c1c(C)cc2c(=O)n(-c3ccccc3C(=O)O)cnc2c1C`, the melting point was 207 to 210 °C.

In the case of `CCCOc1ccc(N(C)S(=O)(=O)c2ccc(C)cc2)c([N+](=O)[O-])c1`, the melting point was 93 to 94 °C.

`CCOC(=O)c1ccc(CSc2nnc(S)s2)cc1` registered a melting point of 114 to 115 °C.

Take `O=C(NC1CCN(CCc2ccncc2)CC1)c1ccccc1`: the melting point is 193 to 195 °C.

Consider `CCCCCCCCCCCCCCOc1ccc2ccc(=O)oc2c1`, for which the melting point is 59 to 60 °C.

Compound `CCCOc1ccc(N)cc1C1=NC(=O)C2=NN=NC2=N1` gave a melting point of 225 to 227 °C.

`O=c1[nH]c(N2CCNC(CO)C2)cc2c(Br)cccc12` (stereo not drawn) came in with a melting point greater than 230 °C.
